# Results from ChEMBL document CHEMBL1127403, “L-N6-(1-iminoethyl)lysine: a selective inhibitor of inducible nitric oxide synthase” (J Med Chem, 1994).
# Tests used:
# [1] = Selectivity is the ratio of IC50 of mouse inducible NOS and Rat brain constitutive NOS
# Nitric oxide synthase 1 = Nitric oxide synthase 1 (Rattus norvegicus, UniProt P29476); experiment: Tested for inhibition of rat brain […] nitric oxide synthase
# [2] = target: T1, Nitric oxide synthase, inducible (Mus musculus, UniProt P29477); experiment: Tested for inhibition of mouse inducible nitric oxide synthase
# T1 sequence (P29477 whole entry): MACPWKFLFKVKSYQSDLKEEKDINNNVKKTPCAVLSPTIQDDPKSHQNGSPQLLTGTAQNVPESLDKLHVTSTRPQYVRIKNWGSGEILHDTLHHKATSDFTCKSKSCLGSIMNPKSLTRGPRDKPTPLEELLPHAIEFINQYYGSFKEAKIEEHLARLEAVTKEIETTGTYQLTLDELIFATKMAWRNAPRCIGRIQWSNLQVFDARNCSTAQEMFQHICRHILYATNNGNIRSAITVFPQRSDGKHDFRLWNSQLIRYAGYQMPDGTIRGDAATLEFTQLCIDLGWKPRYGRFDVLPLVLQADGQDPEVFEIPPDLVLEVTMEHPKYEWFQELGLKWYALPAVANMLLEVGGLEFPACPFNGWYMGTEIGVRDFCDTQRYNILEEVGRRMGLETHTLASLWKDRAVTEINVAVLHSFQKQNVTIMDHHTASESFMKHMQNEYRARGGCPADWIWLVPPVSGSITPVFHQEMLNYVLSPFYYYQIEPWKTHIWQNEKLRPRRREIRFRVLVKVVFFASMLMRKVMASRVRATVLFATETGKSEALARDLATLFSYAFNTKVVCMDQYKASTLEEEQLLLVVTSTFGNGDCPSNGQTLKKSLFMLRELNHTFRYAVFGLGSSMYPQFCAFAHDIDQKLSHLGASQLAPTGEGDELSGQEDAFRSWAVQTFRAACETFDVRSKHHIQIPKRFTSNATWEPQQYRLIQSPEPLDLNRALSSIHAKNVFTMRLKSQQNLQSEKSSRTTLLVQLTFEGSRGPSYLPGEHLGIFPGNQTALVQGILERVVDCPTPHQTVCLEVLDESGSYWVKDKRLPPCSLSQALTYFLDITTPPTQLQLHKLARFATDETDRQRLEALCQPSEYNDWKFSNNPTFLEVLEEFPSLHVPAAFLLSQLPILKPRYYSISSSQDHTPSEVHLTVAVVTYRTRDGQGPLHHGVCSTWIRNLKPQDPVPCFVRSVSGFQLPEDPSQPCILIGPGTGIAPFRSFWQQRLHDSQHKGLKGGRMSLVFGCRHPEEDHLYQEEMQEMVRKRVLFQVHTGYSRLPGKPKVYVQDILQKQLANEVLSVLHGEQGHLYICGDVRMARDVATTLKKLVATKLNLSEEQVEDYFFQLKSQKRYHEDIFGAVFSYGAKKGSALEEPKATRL
# Sequence of Nitric oxide synthase 1 (P29476 whole entry): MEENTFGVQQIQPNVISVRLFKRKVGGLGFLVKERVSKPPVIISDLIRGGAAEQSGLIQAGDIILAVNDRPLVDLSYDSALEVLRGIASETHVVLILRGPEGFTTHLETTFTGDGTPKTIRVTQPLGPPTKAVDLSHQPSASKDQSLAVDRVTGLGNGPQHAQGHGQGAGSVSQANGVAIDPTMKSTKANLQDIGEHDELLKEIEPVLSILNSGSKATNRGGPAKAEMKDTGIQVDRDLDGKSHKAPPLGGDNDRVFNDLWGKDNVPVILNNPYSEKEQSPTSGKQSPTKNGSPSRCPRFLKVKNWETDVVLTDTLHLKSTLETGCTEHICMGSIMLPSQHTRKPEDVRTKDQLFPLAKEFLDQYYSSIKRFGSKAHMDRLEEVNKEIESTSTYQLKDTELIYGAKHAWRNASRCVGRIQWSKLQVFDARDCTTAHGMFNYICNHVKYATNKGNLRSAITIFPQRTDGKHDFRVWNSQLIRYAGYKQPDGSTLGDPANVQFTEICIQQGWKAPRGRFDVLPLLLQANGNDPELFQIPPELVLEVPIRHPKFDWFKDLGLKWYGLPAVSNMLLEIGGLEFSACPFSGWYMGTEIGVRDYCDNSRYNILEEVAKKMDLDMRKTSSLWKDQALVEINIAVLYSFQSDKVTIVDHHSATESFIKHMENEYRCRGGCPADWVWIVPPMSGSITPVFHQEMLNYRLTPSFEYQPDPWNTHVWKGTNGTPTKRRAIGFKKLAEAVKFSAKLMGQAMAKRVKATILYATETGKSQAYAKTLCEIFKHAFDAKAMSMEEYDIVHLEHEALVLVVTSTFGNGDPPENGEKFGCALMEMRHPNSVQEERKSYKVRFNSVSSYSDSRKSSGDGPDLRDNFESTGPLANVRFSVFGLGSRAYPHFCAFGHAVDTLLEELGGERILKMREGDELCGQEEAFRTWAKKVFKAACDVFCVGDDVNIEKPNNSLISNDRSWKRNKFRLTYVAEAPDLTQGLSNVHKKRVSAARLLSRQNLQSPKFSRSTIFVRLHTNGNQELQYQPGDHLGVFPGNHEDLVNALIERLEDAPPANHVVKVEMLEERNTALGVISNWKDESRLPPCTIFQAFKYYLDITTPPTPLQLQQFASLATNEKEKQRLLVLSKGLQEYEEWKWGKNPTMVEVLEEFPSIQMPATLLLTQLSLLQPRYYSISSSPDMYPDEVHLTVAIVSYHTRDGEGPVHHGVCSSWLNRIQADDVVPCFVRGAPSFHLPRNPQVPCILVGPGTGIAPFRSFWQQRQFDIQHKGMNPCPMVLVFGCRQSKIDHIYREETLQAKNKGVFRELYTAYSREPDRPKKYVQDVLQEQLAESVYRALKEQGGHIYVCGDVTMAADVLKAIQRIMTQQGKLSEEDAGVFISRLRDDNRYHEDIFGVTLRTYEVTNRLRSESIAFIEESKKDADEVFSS
Compound,Selectivity [1],IC50 (Nitric oxide synthase 1),IC50 [2]
CC(=N)NCCCCCC(N)C(=O)O (racemic),11,808 µM,73 µM
CC(=N)NCCCC[C@H](N)C(=O)O [L-NIL],28,92 µM,3.3 µM
CC(=N)NCCC[C@H](N)C(=O)O [L-NIO],,,3.9 µM
N=C(NCCC[C@H](N)C(=O)O)N[N+](=O)[O-] [NITROARGININE],,,0.5 µM
CC(=N)NCCCC[C@@H](N)C(=O)O,8,2800 µM,336 µM
